In ChEMBL document CHEMBL1201861, “Genomics of Drug Sensitity in Cancer screening data, Wellcome Trust Sanger Institute”:

Key:
Experiment in all cases: cells
NB14 = format: functional, cell-based; conditions: Homo sapiens;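 further: growth inhibition of NB14 cells measured with a cell viability assay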
Description: SANGER: Inhibition of human NB14 cell growth in a cell viability assay.

GAMG = format: functional, cell-based, Homo sapiens; conditions: Homo sapiens, GAMG;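 further: cell growth inhibition measured by a viability assay in the GAMG human cell line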
Description: SANGER: Inhibition of human GAMG cell growth in a cell viability assay.

A4-Fuk = format: functional, cell-based; conditions: Homo sapiens;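 further: growth inhibition of A4-Fuk cells, read out by a cell viability assay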
Description: SANGER: Inhibition of human A4-Fuk cell growth in a cell viability assay.

LAN-6 = format: functional, cell-based, Homo sapiens; conditions: Homo sapiens, LAN-6;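 further: growth inhibition of LAN-6 cells, determined with a cell viability assay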
Description: SANGER: Inhibition of human LAN-6 cell growth in a cell viability assay.

A2780 = format: functional, cell-based, Homo sapiens; conditions: Homo sapiens, A2780;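 further: growth inhibition of A2780 cells, read out with a cell viability assay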
Description: SANGER: Inhibition of human A2780 cell growth in a cell viability assay.

ONS-76 = format: functional, cell-based, Homo sapiens; conditions: Homo sapiens, ONS-76;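 further: growth inhibition of human ONS-76 cells, read out with a cell viability assay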
EW-16 = format: functional, cell-based, Homo sapiens; conditions: Homo sapiens, EW-16;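 further: growth inhibition of human EW-16 cells, read out as cell viability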
Description: SANGER: Inhibition of human EW-16 cell growth in a cell viability assay.

GP5d = format: functional, cell-based, Homo sapiens; conditions: Homo sapiens, GP5d;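 further: growth inhibition of human GP5d cells, read out with a cell viability assay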
Description: SANGER: Inhibition of human GP5d cell growth in a cell viability assay.

NCI-H1793 = format: functional, cell-based, Homo sapiens; conditions: Homo sapiens, NCI-H1793;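 further: cell growth inhibition, read out by a cell viability assay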
Description: SANGER: Inhibition of human NCI-H1793 cell growth in a cell viability assay.

MKN-7 = format: functional, cell-based, Homo sapiens; conditions: Homo sapiens, MKN-7;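 further: growth inhibition of MKN-7 cells, read out with a cell viability assay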
Description: SANGER: Inhibition of human MKN7 cell growth in a cell viability assay.

NCI-H358 = format: functional, cell-based, Homo sapiens; conditions: Homo sapiens, NCI-H358;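 further: growth inhibition of NCI-H358 human cells, read out with a cell viability assay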
Description: SANGER: Inhibition of human NCI-H358 cell growth in a cell viability assay.

SNU-C2B = format: functional, cell-based, Homo sapiens; conditions: Homo sapiens, SNU-C2B;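 further: cell viability readout used to measure compound-driven suppression of SNU-C2B cell proliferation, IC50 marking half-maximal growth inhibition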
Description: SANGER: Inhibition of human SNU-C2B cell growth in a cell viability assay.

LB2518-MEL = format: functional, cell-based, Homo sapiens; conditions: Homo sapiens, LB2518-MEL;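 further: growth inhibition of human LB2518-MEL cells, measured with a cell viability assay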
Description: SANGER: Inhibition of human LB2518-MEL cell growth in a cell viability assay.

Panc1005 = format: functional, cell-based, Homo sapiens; conditions: Homo sapiens, Panc1005;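 further: growth inhibition of human PANC-10-05 cells, measured by a cell viability assay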
Description: SANGER: Inhibition of human PANC-10-05 cell growth in a cell viability assay.

SK-MES-1 = format: functional, cell-based, Homo sapiens; conditions: Homo sapiens, SK-MES-1;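 further: growth inhibition of human SK-MES-1 cells, read out with a cell viability assay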
Description: SANGER: Inhibition of human SK-MES-1 cell growth in a cell viability assay.

BE-13 = format: functional, cell-based; conditions: Homo sapiens;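 further: growth inhibition of human BE-13 cells, measured with a cell viability assay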
Description: SANGER: Inhibition of human BE-13 cell growth in a cell viability assay.

RT-112 = format: functional, cell-based, Homo sapiens; conditions: Homo sapiens, RT-112
Description: SANGER: Inhibition of human RT-112 cell growth in a cell viability assay.

Ca9-22 = format: functional, cell-based, Homo sapiens; conditions: Homo sapiens, Ca9-22;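 further: growth inhibition of Ca9-22 cells, read out with a cell viability assay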
Description: SANGER: Inhibition of human Ca9-22 cell growth in a cell viability assay.

KURAMOCHI = format: functional, cell-based; conditions: Homo sapiens;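 further: growth inhibition of KURAMOCHI cells, read out with a cell viability assay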
Description: SANGER: Inhibition of human KURAMOCHI cell growth in a cell viability assay.

NCI-H209 = format: functional, cell-based; conditions: Homo sapiens;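 further: growth inhibition of human NCI-H209 cells, measured by a cell viability assay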
Description: SANGER: Inhibition of human NCI-H209 cell growth in a cell viability assay.

LK-2 = format: functional, cell-based, Homo sapiens; conditions: Homo sapiens, LK-2;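 further: growth inhibition of LK-2 cells, read out with a viability assay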
Description: SANGER: Inhibition of human LK-2 cell growth in a cell viability assay.

GI-ME-N = format: functional, cell-based, Homo sapiens; conditions: Homo sapiens, GI-ME-N;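 further: growth inhibition of human GI-ME-N cells, read out with a cell viability assay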
Description: SANGER: Inhibition of human GI-ME-N cell growth in a cell viability assay.

KG-1 = format: functional, cell-based; conditions: Homo sapiens;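 further: growth inhibition of KG-1 cells, read out by a cell viability assay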
Description: SANGER: Inhibition of human KG-1 cell growth in a cell viability assay.

BCPAP = format: functional, cell-based, Homo sapiens; conditions: Homo sapiens, BCPAP;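 further: growth inhibition of BCPAP cells, read out in a cell viability assay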
Description: SANGER: Inhibition of human BCPAP cell growth in a cell viability assay.

SJSA-1 = format: functional, cell-based, Homo sapiens; conditions: Homo sapiens, SJSA-1;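 further: growth inhibition of human SJSA-1 cells, read out through a cell viability measurement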
Description: SANGER: Inhibition of human SJSA-1 cell growth in a cell viability assay.

HAL-01 = format: functional, cell-based; conditions: Homo sapiens;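 further: growth inhibition of human HAL-01 cells, read out with a cell viability assay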
Description: SANGER: Inhibition of human HAL-01 cell growth in a cell viability assay.

IST-MES1 = format: functional, cell-based, Homo sapiens; conditions: Homo sapiens, IST-MES1;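 further: growth inhibition of IST-MES1 cells, measured with a cell viability assay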
Description: SANGER: Inhibition of human IST-MES1 cell growth in a cell viability assay.

NCI-H1693 = format: functional, cell-based, Homo sapiens; conditions: Homo sapiens, NCI-H1693;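 further: growth inhibition of the human cell line, read out with a cell viability assay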
Description: SANGER: Inhibition of human NCI-H1693 cell growth in a cell viability assay.

CHP-212 = format: functional, cell-based, Homo sapiens; conditions: Homo sapiens, CHP-212
Description: SANGER: Inhibition of human CHP-212 cell growth in a cell viability assay.

LB771-HNC = format: functional, cell-based, Homo sapiens; conditions: Homo sapiens, LB771-HNC;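 further: growth inhibition of LB771-HNC human cells, read out with a cell viability assay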
EGI-1 = format: functional, cell-based, Homo sapiens; conditions: Homo sapiens, EGI-1;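 further: cell viability readout used to gauge growth inhibition of EGI-1 cells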
Description: SANGER: Inhibition of human EGI-1 cell growth in a cell viability assay.

NCI-H1155 = format: functional, cell-based; conditions: Homo sapiens;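 further: cell growth inhibition measured by a viability assay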
Description: SANGER: Inhibition of human NCI-H1155 cell growth in a cell viability assay.

HT-1080 = format: functional, cell-based, Homo sapiens; conditions: Homo sapiens, HT-1080
Description: SANGER: Inhibition of human HT-1080 cell growth in a cell viability assay.

8505C = format: functional, cell-based, Homo sapiens; conditions: Homo sapiens, 8505C
Description: SANGER: Inhibition of human 8505C cell growth in a cell viability assay.

8-MG-BA = format: functional, cell-based, Homo sapiens; conditions: Homo sapiens, 8-MG-BA;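 further: growth inhibition of 8-MG-BA cells, read out with a cell viability assay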
Description: SANGER: Inhibition of human 8-MG-BA cell growth in a cell viability assay.

UMC-11 = format: functional, cell-based, Homo sapiens; conditions: Homo sapiens, UMC-11;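 further: growth inhibition of UMC-11 cells, read out with a cell viability assay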
Description: SANGER: Inhibition of human UMC-11 cell growth in a cell viability assay.

TGBC1TKB = format: functional, cell-based, Homo sapiens; conditions: Homo sapiens, TGBC1TKB;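 further: growth inhibition of TGBC1TKB cells, read out by a cell viability assay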
Description: SANGER: Inhibition of human TGBC1TKB cell growth in a cell viability assay.

NKM-1 = format: functional, cell-based; conditions: Homo sapiens;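 further: growth inhibition of NKM-1 cells, read out with a cell viability assay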
Description: SANGER: Inhibition of human NKM-1 cell growth in a cell viability assay.

SCC-25 = format: functional, cell-based, Homo sapiens; conditions: Homo sapiens, SCC-25;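 further: growth inhibition of SCC-25 cells, measured with a cell viability assay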
Description: SANGER: Inhibition of human SCC-25 cell growth in a cell viability assay.

KP-N-YN = format: functional, cell-based; conditions: Homo sapiens;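 further: growth inhibition of KP-N-YN cells, read out with a cell viability assay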
Description: SANGER: Inhibition of human KP-N-YN cell growth in a cell viability assay.

D283 Med = format: functional, cell-based, Homo sapiens; conditions: Homo sapiens, D283 Med
Description: SANGER: Inhibition of human D-283MED cell growth in a cell viability assay.

SW1573 = format: functional, cell-based, Homo sapiens; conditions: Homo sapiens, SW1573;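 further: growth inhibition of SW1573 cells, read out with a cell viability assay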
Description: SANGER: Inhibition of human SW1573 cell growth in a cell viability assay.

NCI-H28 = format: functional, cell-based, Homo sapiens; conditions: Homo sapiens, NCI-H28;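 further: growth inhibition of human NCI-H28 cells, read out as cell viability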
Description: SANGER: Inhibition of human NCI-H28 cell growth in a cell viability assay.

647-V = format: functional, cell-based, Homo sapiens; conditions: Homo sapiens, 647-V;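 further: growth inhibition of 647-V cells, read out with a cell viability assay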
Description: SANGER: Inhibition of human 647-V cell growth in a cell viability assay.

SNU-449 = format: functional, cell-based, Homo sapiens; conditions: Homo sapiens, SNU-449
Description: SANGER: Inhibition of human SNU-449 cell growth in a cell viability assay.

NCI-H1581 = format: functional, cell-based, Homo sapiens; conditions: Homo sapiens, NCI-H1581;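 further: cell growth inhibition read out by a viability assay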
Description: SANGER: Inhibition of human NCI-H1581 cell growth in a cell viability assay.

NCI-H720 = format: functional, cell-based; conditions: Homo sapiens;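 further: growth inhibition of human NCI-H720 cells determined by a cell viability assay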
Description: SANGER: Inhibition of human NCI-H720 cell growth in a cell viability assay.

A253 cell line = format: functional, cell-based, Homo sapiens; conditions: Homo sapiens, A253;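 further: growth inhibition of A253 cells, read out with a cell viability assay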
Description: SANGER: Inhibition of human A253 cell growth in a cell viability assay.

HOP-62 = format: functional, cell-based, Homo sapiens; conditions: Homo sapiens, HOP-62;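 further: cell growth inhibition determined with a viability assay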
Description: SANGER: Inhibition of human HOP-62 cell growth in a cell viability assay.

CN(Cc1cnc2nc(N)nc(N)c2n1)c1ccc(C(=O)N[C@@H](CCC(=O)O)C(=O)O)cc1 [METHOTREXATE]
IC50 (NB14): 0.075 µM | IC50 (GAMG): > 0.2 µM | IC50 (A4-Fuk): 0.0382 µM | IC50 (LAN-6): > 0.2 µM | IC50 (A2780): 0.0545 µM | IC50 (ONS-76): 0.0638 µM | IC50 (EW-16): > 0.2 µM | IC50 (GP5d): > 0.2 µM | IC50 (NCI-H1793): > 0.2 µM | IC50 (MKN-7): > 0.2 µM | IC50 (NCI-H358): > 0.2 µM | IC50 (SNU-C2B): 0.145 µM | IC50 (LB2518-MEL): > 0.2 µM | IC50 (Panc1005): > 0.2 µM | IC50 (SK-MES-1): > 0.2 µM | IC50 (BE-13): 0.0387 µM | IC50 (RT-112): 0.142 µM | IC50 (Ca9-22): > 0.2 µM | IC50 (KURAMOCHI): > 0.2 µM | IC50 (NCI-H209): > 0.2 µM | IC50 (LK-2): > 0.2 µM | IC50 (GI-ME-N): 0.147 µM | IC50 (KG-1): > 0.2 µM | IC50 (BCPAP): 0.0431 µM | IC50 (SJSA-1): > 0.2 µM | IC50 (HAL-01): 0.0223 µM | IC50 (IST-MES1): > 0.2 µM | IC50 (NCI-H1693): > 0.2 µM | IC50 (CHP-212): > 0.2 µM | IC50 (LB771-HNC): > 0.2 µM | IC50 (EGI-1): > 0.2 µM | IC50 (NCI-H1155): > 0.2 µM | IC50 (HT-1080): > 0.2 µM | IC50 (8505C): > 0.2 µM | IC50 (8-MG-BA): > 0.2 µM | IC50 (UMC-11): > 0.2 µM | IC50 (TGBC1TKB): > 0.2 µM | IC50 (NKM-1): 0.0077 µM | IC50 (SCC-25): > 0.2 µM | IC50 (KP-N-YN): > 0.2 µM | IC50 (D283 Med): > 0.2 µM | IC50 (SW1573): > 0.2 µM | IC50 (NCI-H28): > 0.2 µM | IC50 (647-V): > 0.2 µM | IC50 (SNU-449): > 0.2 µM | IC50 (NCI-H1581): > 0.2 µM

O=C(c1cc(Cc2n[nH]c(=O)c3ccccc23)ccc1F)N1CCN(C(=O)C2CC2)CC1 [OLAPARIB]
IC50 (NB14): > 5 µM | IC50 (GAMG): > 5 µM | IC50 (A4-Fuk): > 5 µM | IC50 (LAN-6): > 5 µM | IC50 (A2780): > 5 µM | IC50 (ONS-76): > 5 µM | IC50 (EW-16): > 5 µM | IC50 (GP5d): > 5 µM | IC50 (NCI-H1793): > 5 µM | IC50 (MKN-7): > 5 µM | IC50 (NCI-H358): > 5 µM | IC50 (SNU-C2B): > 5 µM | IC50 (LB2518-MEL): > 5 µM | IC50 (Panc1005): > 5 µM | IC50 (SK-MES-1): > 5 µM | IC50 (BE-13): > 5 µM | IC50 (RT-112): > 5 µM | IC50 (Ca9-22): > 5 µM | IC50 (KURAMOCHI): > 5 µM | IC50 (NCI-H209): 0.916 µM | IC50 (LK-2): > 5 µM | IC50 (NCI-H720): 2.21 µM | IC50 (GI-ME-N): > 5 µM | IC50 (KG-1): > 5 µM | IC50 (BCPAP): > 5 µM | IC50 (SJSA-1): > 5 µM | IC50 (HAL-01): > 5 µM | IC50 (IST-MES1): > 5 µM | IC50 (NCI-H1693): > 5 µM | IC50 (CHP-212): > 5 µM | IC50 (LB771-HNC): > 5 µM | IC50 (EGI-1): > 5 µM | IC50 (NCI-H1155): > 5 µM | IC50 (HT-1080): > 5 µM | IC50 (8505C): > 5 µM | IC50 (8-MG-BA): > 5 µM | IC50 (UMC-11): > 5 µM | IC50 (TGBC1TKB): > 5 µM | IC50 (NKM-1): 1.25 µM | IC50 (SCC-25): > 5 µM | IC50 (KP-N-YN): > 5 µM | IC50 (D283 Med): > 5 µM | IC50 (SW1573): > 5 µM | IC50 (NCI-H28): > 5 µM | IC50 (647-V): > 5 µM | IC50 (SNU-449): > 5 µM | IC50 (NCI-H1581): > 5 µM

O=C(/C=C/c1ccccc1)NC(NC(=S)Nc1cccc2cccnc12)C(Cl)(Cl)Cl (stereo not drawn) [SALUBRINAL]
IC50 (NB14): > 16 µM | IC50 (A4-Fuk): 14.1 µM | IC50 (LAN-6): > 16 µM | IC50 (ONS-76): > 16 µM | IC50 (EW-16): > 16 µM | IC50 (A253 cell line): > 16 µM | IC50 (LB2518-MEL): 7.97 µM | IC50 (BE-13): 8.27 µM | IC50 (KURAMOCHI): > 16 µM | IC50 (NCI-H209): > 16 µM | IC50 (NCI-H720): 7.57 µM | IC50 (GI-ME-N): > 16 µM | IC50 (KG-1): > 16 µM | IC50 (SJSA-1): > 16 µM | IC50 (HAL-01): 9.32 µM | IC50 (IST-MES1): > 16 µM | IC50 (LB771-HNC): > 16 µM | IC50 (HOP-62): > 16 µM | IC50 (NCI-H1155): > 16 µM | IC50 (8-MG-BA): 11 µM | IC50 (TGBC1TKB): > 16 µM | IC50 (NKM-1): 10.6 µM | IC50 (KP-N-YN): > 16 µM | IC50 (D283 Med): > 16 µM | IC50 (NCI-H1581): > 16 µM

CNC(=O)c1cc(Oc2ccc(NC(=O)Nc3ccc(Cl)c(C(F)(F)F)c3)cc2)ccn1 [SORAFENIB]
IC50 (NB14): > 4 µM | IC50 (A4-Fuk): > 4 µM | IC50 (LAN-6): > 4 µM | IC50 (ONS-76): > 4 µM | IC50 (EW-16): > 4 µM | IC50 (A253 cell line): > 4 µM | IC50 (LB2518-MEL): 1.21 µM | IC50 (BE-13): 2.7 µM | IC50 (KURAMOCHI): > 4 µM | IC50 (NCI-H209): > 4 µM | IC50 (NCI-H720): > 4 µM | IC50 (GI-ME-N): > 4 µM | IC50 (KG-1): 1.48 µM | IC50 (SJSA-1): > 4 µM | IC50 (HAL-01): > 4 µM | IC50 (IST-MES1): > 4 µM | IC50 (LB771-HNC): > 4 µM | IC50 (HOP-62): 0.851 µM | IC50 (NCI-H1155): > 4 µM | IC50 (8-MG-BA): > 4 µM | IC50 (TGBC1TKB): > 4 µM | IC50 (NKM-1): 0.0742 µM | IC50 (KP-N-YN): > 4 µM | IC50 (D283 Med): > 4 µM | IC50 (NCI-H1581): > 4 µM
